Holding throughout (assay): NCI anticancer screen, dose series, 48 h
Assay [1] has as its system EKVX NSCLC.
For assay [2], the system named is HL-60(TB) leukemia.
For assay [3], the system named is MALME-3M melanoma.
Assay [4] has as its system MDA-MB-231 breast.
Assay [5] relates to MOLT-4 leukemia.
Assay [6] has as its system NCI-H23 lung.
For assay [7], the system named is OVCAR-3 ovarian.
Assay [8] concerns SF-295 CNS.
Assay [9] deals with SNB-75 CNS.
The subject of assay [10] is HCT-116 colon.

Values joined by “and” are separate entries in the source; they are usually repeats but may differ in a detail not shown here. Equal entries are not always repeated.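 Values below derive from 48-hour exposures of cells grown in 96-well plates, with endpoints linearly interpolated between the two concentrations bracketing the appropriate inhibition level. Here, GI50 denotes the concentration required for 50% inhibition of growth. TGI marks complete inhibition of growth.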

For the molecule `C[C@@H](CO)[C@@H]1CCC=C2CC[C@]3(C)[C@H](CC[C@@H]4[C@@]5(C)CCCNC(C)(C)[C@@H]5CC[C@]43C)[C@H]21`, the GI50 was 4.18 µM in assay [1]; 1.98 µM in assay [2]; 1.71 µM in [3]; 1.94 µM in assay [4]; 2.5 µM in assay [5]; 3.94 µM in assay [6]. In addition, the GI50 in assay [7] is 2.16 µM; in assay [8] it was 1.66 µM; in assay [9], 2.19 µM. For the same molecule, the TGI in [1] was found to be 17.3 µM; in assay [2], 4.54 µM; in [3], 3.36 µM; in assay [4], 4.03 µM; in [5] it was 7.27 µM; in [6], 14.3 µM. For the same molecule, the TGI came to 4.87 µM in assay [7], 3.11 µM in assay [8] and 17.2 µM in assay [9].

For the molecule `CCCCCCCCCCCC1CCCC(C)N1` (configuration not stated), the GI50 in assay [1] was 12.2 µM; in assay [10], 5.82 µM; in assay [2], 1.15 µM; in assay [3] it was 8.03 µM; in assay [4], 3.99 µM; in assay [5], 1.79 µM. Besides, the GI50 in [6] is 8.49 µM; in [7] it was 12 µM; in assay [8] it was 13.5 µM; in [9] it was 9.82 µM. The TGI in assay [1] is 26.3 µM and 119 µM; in assay [10] it was > 41.9 µM and 104 µM; in assay [3] it was 22.7 µM and 166 µM; in assay [4] it was 18 µM; in [6], 23.9 µM and 133 µM; in assay [7], 28.7 µM and 121 µM. Besides, the TGI in assay [8] was 28.3 µM and 154 µM; in assay [9], 24 µM and 151 µM.

With `COc1ccc2c(c1)C(=O)c1c-2c(Nc2ccc(Cl)cc2)nc2ccccc12`, the GI50 was 10.1 µM in [1]; 5.03 µM in assay [10]; > 100 µM in [2]; 11 µM in [3]; 4.46 µM in assay [4]; 27.5 µM in assay [5]. Besides, the GI50 was 13.6 µM in [6], 33.6 µM in assay [7], 16.7 µM in assay [8] and 4.27 µM in [9]. Further, the TGI is 95.3 µM in assay [1]; 24 µM in [10]; > 100 µM in assay [2]; 42.4 µM in assay [3]; 18.9 µM in assay [4]; > 100 µM in assay [5]. For the same molecule, the TGI in [6] was 50.3 µM; in assay [7], > 100 µM; in assay [8], 46.6 µM; in assay [9] it was 22.8 µM.

On to `N#Cc1c(N)nc(N2CCOCC2)c(C#N)c1-c1cccnc1`, for which the GI50 was 83.8 µM in assay [1]; 86.6 µM in assay [10]; 95.6 µM in assay [2]; 37.2 µM in assay [3]; 27.6 µM in assay [4]; > 100 µM in [5]. For the same molecule, the GI50 was 26.6 µM in [7], 44.4 µM in assay [8] and 11.1 µM in assay [9]. The TGI in [1] is > 100 µM; in [10] it was > 100 µM; in assay [2], > 100 µM; in assay [3] it was 91.4 µM; in assay [4], > 100 µM; in assay [5], > 100 µM. In addition, the TGI is 89.7 µM in assay [7], > 100 µM in assay [8] and 43.6 µM in assay [9].

As for `Nc1nc(-c2ccccc2)nc2c1[n+]([O-])c1ccccc1[n+]2[O-]`, the TGI in [1], in assay [10], in assay [2], in [3], in assay [4] and in assay [6] was > 100 µM each time. Besides, the TGI in [7] and in [8] was > 100 µM in each case.

For the molecule `CCNC(=O)c1cc2c(-c3cc(C(C)(C)O)ccc3Oc3c(C)cc(F)cc3C)cn(C)c(=O)c2[nH]1`, the GI50 is 2.26 µM in assay [1]; 1.32 µM in assay [10]; 0.393 µM in [2]; 2.15 µM in assay [3]; 1.08 µM in assay [4]; 2.36 µM in assay [5]. Moreover, the GI50 in assay [6] was 1.89 µM; in assay [7], 1.93 µM; in [8] it was 2.19 µM; in assay [9] it was 0.108 µM. In addition, the TGI in assay [1] worked out at 16.4 µM; in assay [10], 12.5 µM; in assay [2], 4.88 µM; in assay [3] it was 15.2 µM; in assay [4], 15.9 µM; in [5], 10.2 µM. Also, the TGI in assay [6] worked out at 10.7 µM; in assay [7], 11.9 µM; in assay [8], 11 µM; in assay [9], 12.8 µM.

`CC1OC(OC2C(O[C@H]3CC[C@@]4(C)C(=CC[C@H]5[C@@H]6C[C@@H]7O[C@]8(CC[C@H](C)CN8)[C@@H](C)[C@@H]7[C@@]6(C)CC[C@@H]54)C3)OC(CO)C(O)C2OC2OC(CO)C(O)C(O)C2O)C(O)C(O)C1O` (some centres not stated): the TGI in assay [1] came to 32.3 µM; in assay [10], 39.9 µM; in assay [2] it was 32.6 µM; in assay [3], 34.5 µM; in assay [4], 38.8 µM; in assay [5] it was 42.1 µM. For the same molecule, the TGI was 32.5 µM in assay [6], 34.1 µM in assay [8] and 29.2 µM in assay [9].

In the case of `O=C1c2ccccc2C(=O)c2c1ccc(C1C(=O)c3ccccc3C1=O)c2-c1c(C2C(=O)c3ccccc3C2=O)ccc2c1C(=O)c1ccccc1C2=O`, the TGI was > 100 µM in [1]; > 100 µM in [10]; > 100 µM in [2]; > 100 µM in [3]; > 100 µM in [4]; 82.5 µM in assay [5]. Also, the TGI in [7], in assay [8] and in assay [9] was > 100 µM throughout.

For the molecule `COc1cc(OC)c(/C=C/c2cnc3ccccc3n2)c(OC)c1`, the TGI in assay [1], in assay [10], in assay [2], in assay [3], in assay [4] and in assay [6] was > 10 µM in each case. For the same molecule, the TGI in [7], in assay [8] and in [9] was > 10 µM throughout.

As for `Fc1ccc(Nc2nc3nonc3nc2Nc2ccc(F)cc2)cc1`, the GI50 in assay [10] is 0.322 µM; in assay [2] it was 0.342 µM; in assay [3] it was 0.277 µM; in assay [4] it was 0.493 µM; in [5], 0.356 µM; in assay [6], 0.264 µM. Further, the GI50 in assay [7] was 0.371 µM; in [8], 0.271 µM; in [9] it was 0.399 µM. Also, the TGI is 11.4 µM in assay [10]; 1.5 µM in assay [2]; 1.11 µM in [3]; 4.25 µM in [4]; 1.65 µM in assay [5]; 0.852 µM in [6]. Also, the figures for the TGI in assay [7], in assay [8] and in assay [9] were 11 µM, 1.26 µM and 3.38 µM, respectively.

Take `COc1cc(Nc2ccnc(NCCCNc3ccnc4cc(Cl)ccc34)n2)cc(OC)c1`: the GI50 in assay [10] is 0.842 µM; in [2], 2.04 µM; in assay [3] it was 2.02 µM; in assay [4], 1.5 µM; in assay [5], 2.23 µM; in [6] it was 2.67 µM. In addition, the GI50 in assay [7] is 1.95 µM; in assay [8], 1.37 µM; in assay [9], 1.31 µM. Further, the TGI in assay [10] stood at 2.73 µM; in assay [2], 4.54 µM; in assay [3] it was 3.86 µM; in assay [4], 3.16 µM; in assay [5], 6.39 µM; in [6], 10.2 µM. Moreover, the TGI in [7] turned out to be 4.32 µM; in assay [8], 2.78 µM; in [9] it was 2.58 µM.

As for `COc1cc2c3c(n(CCCI)c(=O)c2cc1OC)-c1cc2c(cc1C3=O)OCO2`, the GI50 in assay [10] was 2.6 µM; in assay [2], 1.08 µM; in assay [3] it was 7.57 µM; in assay [4], 18.7 µM; in [5], 0.126 µM; in assay [6], 7.24 µM. Moreover, the GI50 is 11.2 µM in assay [7], 0.776 µM in assay [8] and > 100 µM in assay [9]. Further, the TGI was > 100 µM in [10]; > 100 µM in assay [2]; 54.6 µM in [3]; > 100 µM in assay [4]; > 100 µM in assay [5]; > 100 µM in assay [6]. The TGI in [7], in assay [8] and in assay [9] was > 100 µM in each case.

As for `C=C1CC/C=C(\C)C(=O)C[C@@H]2[C@@H]1CC2(C)C`, the TGI in assay [1] is 27.3 µM; in [10] it was 7.06 µM; in assay [2] it was 0.507 µM; in [3], 10.5 µM; in assay [4] it was 28.6 µM; in assay [6], 15.4 µM. Besides, the TGI in assay [7] came out at 20.7 µM; in assay [8] it was 33.4 µM; in assay [9], 26.3 µM.

Values taken from PubChem BioAssay (NCI).
